Source: ChEMBL document CHEMBL1201862, “PubChem BioAssay data set” (2004)
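Assay format: 96-well plates, 48-hour exposure. GI50 is the concentration that inhibits growth by half.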 Activity calls are given as the source filed them. No stated cut-off is given here; in the data, active = GI50 up to about 1.1 µM and inactive = higher.

Columns and labels:
Experiment in all cases: NCI anticancer screen, dose series, 48 h
786-0 = system: 786-0
A498 = system: A498
A549 = system: A549
ACHN = system: ACHN
BT-549 = system: BT-549
CAKI-1 = system: CAKI-1
CCRF-CEM = system: CCRF-CEM
COLO 205 = system: COLO 205
DU-145 = system: DU-145
EKVX = system: EKVX
HCC 2998 = system: HCC 2998
HCT-116 = system: HCT-116
HCT-15 = system: HCT-15
HL-60 = system: HL-60
HOP-62 = system: HOP-62
HOP-92 = system: HOP-92
HT-29 = system: HT-29
Hs-578T = system: Hs-578T
IGROV-1 = system: IGROV-1
K562 = system: K562
KM12 = system: KM12
LOX IMVI = system: LOX IMVI
M14 = system: M14
MCF7 = system: MCF7
MDA-MB-231 = system: MDA-MB-231
MDA-MB-435 = system: MDA-MB-435
MDA-N = system: MDA-N
MOLT-4 = system: MOLT-4
Malme-3M = system: Malme-3M
NCI-H23 = system: NCI-H23
NCI-H460 = system: NCI-H460
NCI-H522 = system: NCI-H522
NCI/ADR-RES = system: NCI/ADR-RES
OVCAR-3 = system: OVCAR-3
OVCAR-4 = system: OVCAR-4
OVCAR-5 = system: OVCAR-5
OVCAR-8 = system: OVCAR-8
PC-3 = system: PC-3
RPMI-8226 = system: RPMI-8226
RXF 393 = system: RXF 393
SF-268 = system: SF-268
SF-295 = system: SF-295
SF-539 = system: SF-539
SK-MEL-28 = system: SK-MEL-28
SK-MEL-2 = system: SK-MEL-2
SK-MEL-5 = system: SK-MEL-5
SK-OV-3 = system: SK-OV-3
SN12C = system: SN12C
SNB-19 = system: SNB-19
SNB-75 = system: SNB-75
SW-620 = system: SW-620
T47D = system: T47D
TK-10 = system: TK-10
U-251 = system: U-251
UACC-257 = system: UACC-257
UACC-62 = system: UACC-62
UO-31 = system: UO-31
NCI-H226 = system: NCI-H226
SR = system: SR

For COC(=O)C1CC23C4=C(CCC41)CCC1CN4CC(C)C(CC(OC(C)=O)C12COC(C)=O)C43O (stereo not given), the GI50 (786-0) was > 100 µM (inactive), the GI50 (A498) was > 100 µM (inactive) and the GI50 (A549) was > 100 µM (inactive). The GI50 (ACHN) was > 100 µM (inactive), the GI50 (BT-549) was > 100 µM (inactive) and the GI50 (CAKI-1) was > 100 µM (inactive). For the same molecule, the GI50 (CCRF-CEM) was > 100 µM (inactive), the GI50 (COLO 205) was > 100 µM (inactive) and the GI50 (DU-145) was > 100 µM (inactive). The GI50 (EKVX) was > 100 µM (inactive), the GI50 (HCC 2998) was > 100 µM (inactive) and the GI50 (HCT-116) was > 100 µM (inactive). The GI50 (HCT-15) was greater than 100 µM, the GI50 (HL-60) was > 100 µM (inactive) and the GI50 (HOP-62) was > 100 µM (inactive). For the same molecule, the GI50 (HOP-92) was > 100 µM (inactive), the GI50 (HT-29) was > 100 µM (inactive) and the GI50 (Hs-578T) was > 100 µM (inactive). For the same molecule, the GI50 (IGROV-1) was > 100 µM (inactive), the GI50 (K562) was > 100 µM (inactive) and the GI50 (KM12) was > 100 µM (inactive). For the same molecule, the GI50 (LOX IMVI) was > 100 µM (inactive), the GI50 (M14) was > 100 µM (inactive) and the GI50 (MCF7) was > 100 µM (inactive). The GI50 (MDA-MB-231) was > 100 µM (inactive), the GI50 (MDA-MB-435) was > 100 µM (inactive) and the GI50 (MDA-N) was > 100 µM (inactive). For the same molecule, the GI50 (MOLT-4) was 68.4 µM (inactive), the GI50 (Malme-3M) was > 100 µM (inactive) and the GI50 (NCI-H23) was > 100 µM (inactive). The GI50 (NCI-H460) was > 100 µM (inactive), the GI50 (NCI-H522) was > 100 µM (inactive) and the GI50 (NCI/ADR-RES) was > 100 µM (inactive). For the same molecule, the GI50 (OVCAR-3) was > 100 µM (inactive), the GI50 (OVCAR-4) was > 100 µM (inactive) and the GI50 (OVCAR-5) was > 100 µM (inactive). The GI50 (OVCAR-8) was > 100 µM (inactive), the GI50 (PC-3) was > 100 µM (inactive) and the GI50 (RPMI-8226) was > 100 µM (inactive). The GI50 (RXF 393) was > 100 µM (inactive), the GI50 (SF-268) was > 100 µM (inactive) and the GI50 (SF-295) was > 100 µM (inactive). For the same molecule, the GI50 (SF-539) was > 100 µM (inactive), the GI50 (SK-MEL-28) was > 100 µM (inactive) and the GI50 (SK-MEL-2) was > 100 µM (inactive). The GI50 (SK-MEL-5) was > 100 µM (inactive), the GI50 (SK-OV-3) was > 100 µM (inactive) and the GI50 (SN12C) was > 100 µM (inactive). For the same molecule, the GI50 (SNB-19) was > 100 µM (inactive), the GI50 (SNB-75) was > 100 µM (inactive) and the GI50 (SW-620) was > 100 µM (inactive). The GI50 (T47D) was > 100 µM (inactive), the GI50 (TK-10) was > 100 µM (inactive) and the GI50 (U-251) was > 100 µM (inactive). For the same molecule, the GI50 (UACC-257) was > 100 µM (inactive), the GI50 (UACC-62) was > 100 µM (inactive) and the GI50 (UO-31) was > 100 µM (inactive).

CCN1/C(=C/C#C/C(C)=C\c2sc3ccccc3[n+]2CC)Sc2ccccc21 was tested, and the GI50 (786-0) was 3.13 µM (inactive), the GI50 (A549) was 2.92 µM (inactive) and the GI50 (ACHN) was 1.16 µM (inactive). The GI50 (BT-549) was 0.558 µM (active), the GI50 (CAKI-1) was 2.39 µM (inactive) and the GI50 (COLO 205) was 1.27 µM (inactive). The GI50 (DU-145) was 3.42 µM (inactive), the GI50 (EKVX) was 1.33 µM (inactive) and the GI50 (HCC 2998) was 3.01 µM (inactive). For the same molecule, the GI50 (HCT-116) was 0.738 µM (active), the GI50 (HCT-15) was 3.69 µM and the GI50 (HL-60) was 0.482 µM (active). For the same molecule, the GI50 (HOP-62) was 5.37 µM (inactive), the GI50 (HOP-92) was 2 µM (inactive) and the GI50 (HT-29) was 1.35 µM (inactive). The GI50 (Hs-578T) was 2.98 µM (inactive), the GI50 (IGROV-1) was 1.75 µM (inactive) and the GI50 (K562) was 0.269 µM (active). For the same molecule, the GI50 (KM12) was 1.28 µM (inactive), the GI50 (LOX IMVI) was 2.33 µM (inactive) and the GI50 (M14) was 1.93 µM (inactive). The GI50 (MCF7) was 4.05 µM (inactive), the GI50 (MDA-MB-231) was 4.42 µM (inactive) and the GI50 (MDA-MB-435) was 2.36 µM (inactive). For the same molecule, the GI50 (MDA-N) was 2.9 µM (inactive), the GI50 (MOLT-4) was 24.4 µM (inactive) and the GI50 (Malme-3M) was 1.11 µM (active). For the same molecule, the GI50 (NCI-H226) was 0.631 µM (active), the GI50 (NCI-H460) was 2.53 µM (inactive) and the GI50 (NCI-H522) was 0.377 µM (active). The GI50 (NCI/ADR-RES) was 3.53 µM (inactive), the GI50 (OVCAR-4) was 7.33 µM (inactive) and the GI50 (OVCAR-5) was 3.44 µM (inactive). The GI50 (OVCAR-8) was 2.07 µM (inactive), the GI50 (PC-3) was 1.82 µM (inactive) and the GI50 (RPMI-8226) was 0.222 µM (active). The GI50 (RXF 393) was 2.14 µM (inactive), the GI50 (SF-268) was 2.86 µM (inactive) and the GI50 (SF-295) was 2.94 µM (inactive). The GI50 (SF-539) was 2.9 µM (inactive), the GI50 (SK-MEL-28) was 3.35 µM (inactive) and the GI50 (SK-MEL-2) was 2.44 µM (inactive). The GI50 (SK-MEL-5) was 2.02 µM (inactive), the GI50 (SK-OV-3) was 10.6 µM (inactive) and the GI50 (SN12C) was 4.35 µM (inactive). For the same molecule, the GI50 (SNB-19) was 1.91 µM (inactive), the GI50 (SNB-75) was 1.53 µM (inactive) and the GI50 (SR) was 0.811 µM (active). The GI50 (SW-620) was 0.593 µM (active), the GI50 (T47D) was 5.13 µM (inactive) and the GI50 (TK-10) was 3.24 µM (inactive). For the same molecule, the GI50 (U-251) was 0.948 µM (active), the GI50 (UACC-257) was 1.32 µM (inactive) and the GI50 (UACC-62) was 2.55 µM (inactive). The GI50 (UO-31) was 2.03 µM (inactive).

CC(Cl)CN1c2ccccc2Sc2ccc(Cl)cc21 (stereo not given) was tested, and the GI50 (786-0) was > 10 µM (inactive), the GI50 (A498) was > 10 µM (inactive) and the GI50 (A549) was > 10 µM (inactive). The GI50 (ACHN) was > 10 µM (inactive), the GI50 (BT-549) was > 10 µM (inactive) and the GI50 (CAKI-1) was > 10 µM (inactive). The GI50 (CCRF-CEM) was > 10 µM (inactive), the GI50 (COLO 205) was > 10 µM (inactive) and the GI50 (DU-145) was > 10 µM (inactive). For the same molecule, the GI50 (EKVX) was > 10 µM (inactive), the GI50 (HCC 2998) was > 10 µM (inactive) and the GI50 (HCT-116) was > 10 µM (inactive). For the same molecule, the GI50 (HCT-15) was greater than 10 µM, the GI50 (HL-60) was > 10 µM (inactive) and the GI50 (HOP-62) was > 10 µM (inactive). For the same molecule, the GI50 (HOP-92) was > 10 µM (inactive), the GI50 (HT-29) was > 10 µM (inactive) and the GI50 (Hs-578T) was > 10 µM (inactive). The GI50 (IGROV-1) was > 10 µM (inactive), the GI50 (K562) was > 10 µM (inactive) and the GI50 (KM12) was > 10 µM (inactive). For the same molecule, the GI50 (LOX IMVI) was > 10 µM (inactive), the GI50 (M14) was > 10 µM (inactive) and the GI50 (MCF7) was > 10 µM (inactive). The GI50 (MDA-MB-231) was > 10 µM (inactive), the GI50 (MDA-MB-435) was > 10 µM (inactive) and the GI50 (MDA-N) was > 10 µM (inactive). For the same molecule, the GI50 (MOLT-4) was > 10 µM (inactive), the GI50 (Malme-3M) was > 10 µM (inactive) and the GI50 (NCI-H226) was > 10 µM (inactive). The GI50 (NCI-H23) was > 10 µM (inactive), the GI50 (NCI-H460) was > 10 µM (inactive) and the GI50 (NCI-H522) was > 10 µM (inactive). For the same molecule, the GI50 (NCI/ADR-RES) was > 10 µM (inactive), the GI50 (OVCAR-3) was > 10 µM (inactive) and the GI50 (OVCAR-4) was > 10 µM (inactive). The GI50 (OVCAR-5) was > 10 µM (inactive), the GI50 (OVCAR-8) was > 10 µM (inactive) and the GI50 (PC-3) was > 10 µM (inactive). The GI50 (RPMI-8226) was > 10 µM (inactive), the GI50 (RXF 393) was > 10 µM (inactive) and the GI50 (SF-268) was > 10 µM (inactive). For the same molecule, the GI50 (SF-295) was > 10 µM (inactive), the GI50 (SF-539) was > 10 µM (inactive) and the GI50 (SK-MEL-28) was > 10 µM (inactive). The GI50 (SK-MEL-2) was > 10 µM (inactive), the GI50 (SK-MEL-5) was > 10 µM (inactive) and the GI50 (SK-OV-3) was > 10 µM (inactive). For the same molecule, the GI50 (SN12C) was > 10 µM (inactive), the GI50 (SNB-19) was > 10 µM (inactive) and the GI50 (SNB-75) was > 10 µM (inactive). For the same molecule, the GI50 (SW-620) was > 10 µM (inactive), the GI50 (T47D) was > 10 µM (inactive) and the GI50 (TK-10) was > 10 µM (inactive). For the same molecule, the GI50 (U-251) was > 10 µM (inactive), the GI50 (UACC-257) was > 10 µM (inactive) and the GI50 (UACC-62) was > 10 µM (inactive). The GI50 (UO-31) was > 10 µM (inactive).
